In ChEMBL document CHEMBL4428092, “Synthesis and activity evaluation of the cyclic dipeptides arylidene N-alkoxydiketopiperazines” (Bioorg Med Chem, 2016):

What was measured:
HT-29 [1] = assay: Growth inhibition of human HT-29 cells at 20 ug/ml after 24 hrs by sulforhodamine B assay relative to control; type: functional; details: HT-29, 24 h, read-out: GI
A549 [2] = assay: Growth inhibition of human A549 cells at 20 ug/ml after 24 hrs by sulforhodamine B assay relative to control; type: functional; details: A549, 24 h, read-out: GI
HCT-15 [3] = assay: Growth inhibition of human HCT15 cells at 20 ug/ml after 24 hrs by sulforhodamine B assay relative to control; type: functional; details: HCT-15, 24 h, read-out: GI
HT-29 [4] = assay: Cytotoxicity against human HT-29 cells at 100 uM after 24 hrs by sulforhodamine B assay relative to control; type: functional
[5] = Cytotoxicity against human K562-1 cells at 100 uM after 24 hrs by sulforhodamine B assay relative to control; type: functional
A549 [6] = assay: Cytotoxicity against human A549 cells at 10 uM after 24 hrs by sulforhodamine B assay relative to control; type: functional
HCT-15 [7] = assay: Cytotoxicity against human HCT15 cells at 5 uM after 24 hrs by sulforhodamine B assay relative to control; type: functional
A549 [8] = assay: Cytotoxicity against human A549 cells at 100 uM after 24 hrs by sulforhodamine B assay relative to control; type: functional
HT-29 [9] = assay: Cytotoxicity against human HT-29 cells at 10 uM after 24 hrs by sulforhodamine B assay relative to control; type: functional
[10] = Cytotoxicity against human K562-1 cells at 20 uM after 24 hrs by sulforhodamine B assay relative to control; type: functional
[11] = Growth inhibition of human K562-1 cells at 20 ug/ml after 24 hrs by sulforhodamine B assay relative to control; type: functional; details: read-out: GI
A549 [12] = assay: Antiproliferative activity against human A549 cells after 24 hrs by sulforhodamine B assay relative to control; type: functional, cell-based; details: A549, 24 h
HCT-15 [13] = assay: Cytotoxicity against human HCT15 cells at 10 uM after 24 hrs by sulforhodamine B assay relative to control; type: functional
HCT-15 [14] = assay: Cytotoxicity against human HCT15 cells at 100 uM after 24 hrs by sulforhodamine B assay relative to control; type: functional
HCT-15 [15] = assay: Antiproliferative activity against human HCT15 cells after 24 hrs by sulforhodamine B assay relative to control; type: functional, cell-based; details: HCT-15, 24 h
[16] = Cytotoxicity against human K562-1 cells at 10 uM after 24 hrs by sulforhodamine B assay relative to control; type: functional
[17] = Antiproliferative activity against human K562-1 cells after 24 hrs by sulforhodamine B assay relative to control; type: functional, cell-based
[18] = Cytotoxicity against human K562-1 cells at 5 uM after 24 hrs by sulforhodamine B assay relative to control; type: functional
A549 [19] = assay: Cytotoxicity against human A549 cells at 50 uM after 24 hrs by sulforhodamine B assay relative to control; type: functional
HCT-15 [20] = assay: Cytotoxicity against human HCT15 cells at 50 uM after 24 hrs by sulforhodamine B assay relative to control; type: functional
HT-29 [21] = assay: Cytotoxicity against human HT-29 cells at 20 uM after 24 hrs by sulforhodamine B assay relative to control; type: functional
[22] = Cytotoxicity against human K562-1 cells at 50 uM after 24 hrs by sulforhodamine B assay relative to control; type: functional
[23] = Growth inhibition of human Bre04 cells at 20 ug/ml after 24 hrs by sulforhodamine B assay relative to control; type: functional; details: Bre04, 24 h, read-out: GI
HT-29 [24] = assay: Cytotoxicity against human HT-29 cells at 50 uM after 24 hrs by sulforhodamine B assay relative to control; type: functional
HCT-15 [25] = assay: Cytotoxicity against human HCT15 cells at 20 uM after 24 hrs by sulforhodamine B assay relative to control; type: functional
A549 [26] = assay: Cytotoxicity against human A549 cells at 20 uM after 24 hrs by sulforhodamine B assay relative to control; type: functional
A549 [27] = assay: Cytotoxicity against human A549 cells at 5 uM after 24 hrs by sulforhodamine B assay relative to control; type: functional
HCT-8 = assay: Growth inhibition of human HCT8 cells at 20 ug/ml relative to control; type: functional; details: read-out: GI
MDA-MB-231 = assay: Growth inhibition of human MDA-MB-231 cells at 20 ug/ml relative to control; type: functional; details: read-out: GI
HepG2 = assay: Growth inhibition of human HepG2 cells at 20 ug/ml relative to control; type: functional; details: read-out: GI
HT-29 [28] = assay: Growth inhibition of human HT-29 cells at 20 ug/ml relative to control; type: functional; details: read-out: GI
HCT-15 [29] = assay: Growth inhibition of human HCT15 cells at 20 ug/ml relative to control; type: functional; details: read-out: GI
[30] = Growth inhibition of human K562-1 cells at 20 ug/ml relative to control; type: functional; details: read-out: GI
A549 [31] = assay: Growth inhibition of human A549 cells at 20 ug/ml relative to control; type: functional; details: read-out: GI

| Compound | Activity (HT-29 [4]) | Activity [5] | Activity (HCT-15 [7]) | Activity (HT-29 [9]) | Activity [10] | Activity (HCT-15 [13]) | Activity (HCT-15 [14]) | IC50 (HCT-15 [15]) | Activity [16] | IC50 [17] | Activity [18] | Activity (A549 [19]) | inhibition of growth at 20 µg/mL [23] | inhibition of growth at 20 µg/mL (HCT-8) | inhibition of growth at 20 µg/mL (MDA-MB-231) | inhibition of growth at 20 µg/mL (HepG2) | inhibition of growth at 20 µg/mL (HT-29 [28]) | inhibition of growth at 20 µg/mL (HCT-15 [29]) | inhibition of growth at 20 µg/mL [30] | inhibition of growth at 20 µg/mL (A549 [31]) | further results |
| --- | --- | --- | --- | --- | --- | --- | --- | --- | --- | --- | --- | --- | --- | --- | --- | --- | --- | --- | --- | --- | --- |
| COc1cc(/C=C2\C(=O)N3CCC[C@H]3C(=O)N2OCc2cccnc2)cc(OC)c1OC | – | – | – | – | – | – | – | – | – | – | – | – | – | – | – | – | – | – | – | – | inhibition of growth at 20 µg/mL (HT-29 [1]): 30.7%; inhibition of growth at 20 µg/mL (A549 [2]): 27.1%; inhibition of growth at 20 µg/mL (HCT-15 [3]): 78.7% |
| COc1cc(/C=C2\C(=O)N3CCC[C@H]3C(=O)N2OCc2ccc(Cl)cc2)cc(OC)c1OC | 86.8% | 97.8% | 42.4% | 24.2% | 73.9% | 60.5% | 98.6% | 8.6 µM | 58.1% | 7.3 µM | 36.7% | 81.8% | 50.3% | – | – | – | – | – | – | – | Activity (A549 [6]): 48.1%; inhibition of growth at 20 µg/mL (HT-29 [1]): 53.2%; Activity (A549 [8]): 91.7%; inhibition of growth at 20 µg/mL [11]: 95.7%; IC50 (A549 [12]): 11.4 µM; inhibition of growth at 20 µg/mL (A549 [2]): 76.6%; inhibition of growth at 20 µg/mL (HCT-15 [3]): 92.6%; Activity (HCT-15 [20]): 94.4%; Activity (HT-29 [21]): 39.2%; Activity [22]: 96.5%; Activity (HT-29 [24]): 55.7%; Activity (HCT-15 [25]): 81.6%; Activity (A549 [26]): 63.4%; Activity (A549 [27]): 4.03% |
| O=C1[C@@H]2CCCN2C(=O)/C(=C\c2ccccc2)N1OCc1ccccc1 | – | – | – | – | – | – | – | – | – | – | – | – | 25% | 66.8% | 32.6% | 69.2% | 76.2% | 69.7% | 65.6% | 41.3% | – |
| CCON1C(=O)[C@@H]2CCCN2C(=O)/C1=C\c1ccccc1 | – | – | – | – | – | – | – | – | – | – | – | – | 21.9% | – | – | – | – | – | – | – | inhibition of growth at 20 µg/mL (HT-29 [1]): 62.8%; inhibition of growth at 20 µg/mL [11]: 42.6%; inhibition of growth at 20 µg/mL (A549 [2]): 25.3% |
| COc1cc(/C=C2\C(=O)N3CCC[C@H]3C(=O)N2OC2CCCCC2)cc(OC)c1OC | 88.5% | 96.4% | 40.4% | 48.8% | 61.3% | 39.2% | 89.7% | 23.7 µM | 50.7% | 9.8 µM | 30.2% | 33.4% | – | 75.2% | 42.5% | 76.1% | 60.5% | 67.9% | – | 26.4% | inhibition of growth at 20 µg/mL [11]: 80.1%; Activity (HCT-15 [20]): 69.3%; Activity (HT-29 [21]): 42.9%; Activity [22]: 83.6%; Activity (HT-29 [24]): 56.6%; Activity (HCT-15 [25]): 47.6%; Activity (A549 [26]): 20.5% |
| O=C1[C@@H]2CCCN2C(=O)/C(=C\c2ccccc2)N1OC1CCCCC1 | – | – | – | – | – | – | – | – | – | – | – | – | – | 76.3% | 17.3% | 68.5% | 69.4% | 72.3% | 78.2% | 33.8% | – |
| CCCCON1C(=O)[C@@H]2CCCN2C(=O)/C1=C\c1ccccc1 | 80.6% | 99.6% | 4.04% | 21.2% | 46.5% | 48.8% | 99.1% | 11.8 µM | 39.2% | 27.3 µM | 30.2% | 48.4% | – | 68.4% | 16.3% | 59.9% | 64.9% | 90.6% | 96.2% | 50.8% | Activity (A549 [8]): 91.1%; Activity (HCT-15 [20]): 87.5%; Activity (HT-29 [21]): 39.8%; Activity [22]: 92.7%; Activity (HT-29 [24]): 61.6%; Activity (HCT-15 [25]): 78.3%; Activity (A549 [26]): 16.2% |
| O=C1[C@@H]2CCCN2C(=O)/C(=C\c2cccnc2)N1OC1CCCCC1 | – | – | – | – | – | – | – | – | – | – | – | – | 35.3% | 80.1% | 16.1% | 60.4% | 70.3% | 62.1% | 69.3% | 35.2% | – |
| COc1cc(/C=C2\C(=O)N3CCC[C@H]3C(=O)N2OCc2ccccc2)cc(OC)c1OC | – | – | – | – | – | – | – | – | – | – | – | – | – | 79.1% | 43.2% | 75% | 70.1% | 74.2% | 73.2% | 8.9% | – |
| CON1C(=O)[C@@H]2CCCN2C(=O)/C1=C\c1ccccc1 | 88.6% | 98.6% | 37.3% | 28.1% | 55.4% | 46.8% | 96.5% | 14.1 µM | 36.2% | 17.6 µM | 24.4% | 22.4% | 24.5% | 78.8% | 23.5% | 62.2% | 65.4% | 88.8% | 90.4% | 26.6% | Activity (A549 [8]): 50.5%; Activity (HCT-15 [20]): 82.6%; Activity (HT-29 [21]): 34.9%; Activity [22]: 87.3%; Activity (HT-29 [24]): 56.4%; Activity (HCT-15 [25]): 60.5% |
| CCCCON1C(=O)[C@@H]2CCCN2C(=O)/C1=C\c1cc(OC)c(OC)c(OC)c1 | – | – | – | – | – | – | – | – | – | – | – | – | – | 60.6% | 45.6% | 64.3% | 61.6% | 61.6% | 64.4% | 43.4% | – |
